Measured values reported in US20140194479A1, “COMPOSITIONS AND METHODS FOR TREATING MOOD DISORDERS” (priority 2011, published 2014).

Columns and labels:
[1] = test system: 5-HT/5-HIAA levels in the forebrain neocortex; conditions: 300 mg/kg twice per day, within 5 days; Gurevich et al., 2002; cited from earlier work
[2] = test system: histone H3 and H4 proteins in the forebrain neocortex; test: Western blotting of histone proteins, forebrain neocortex of SFR Balb/c mice; format: in vivo
Description: (§1) Forebrain neocortical tissue was dissected in phosphate-buffered saline supplemented with protease inhibitors and homogenized in 0.5% SDS, protease inhibitor cocktail (Complete Mini, Roche, Germany), 10 mM EDTA, and 10 mM Tris HCl (pH 8.0). Protein concentration was measured using the NanoDrop instrument (Thermo Scientific, Wilmington, Del.).
(§2) For loading controls, an anti-GAPDH antibody was used (Abcam, Cambridge, Mass.; 1:100,000). After incubation with primary antibody, membranes were incubated with a horseradish-peroxidase-conjugated secondary antibody (anti-rabbit IgG-HRP; Sigma, St. Louis, Mo.; dilution: 1:5,000) for 1 hour at room temperature. SuperSignal West Dura (Thermo Scientific, Waltham, Mass.) was used to visualize bound antigen. Optical densities (OD) of histone protein signals were determined using NIH ImageJ software. ODs were normalized to corresponding ODs obtained for GAPDH.

SFR Balb/c mice [3] = test: Forced Swim Test (FST), SFR (non-stressed) Balb/c mice; format: in vivo; conditions: for immobility in the FST: SFR Balb/c treated during adolescence (P35 to P60), vs SFR controls
Description: (§4) For chronic drug treatment, drugs were administered via the drinking water. […] Suberoylanidide hydroxamic acid (SAHA) was dissolved in DMSO and subsequently diluted about 100 fold in water containing 0.2% sucrose. Mice consumed about 200 mg/kg/day of SAHA (Butler et al., 2000) and their controls received drinking water supplemented with the same amount of DMSO and sucrose that SAHA-treated animals received. […] In these experiments, mice received a single intraperitoneal injection of SAHA (100 mg/kg) at P35, followed by SAHA treatment via the drinking water for the next 3 days.
Three days later, mice were tested in a modified version of Forced Swim Test (FST), i.e., a 6 minute exposure on day 1 followed by another 6 minute exposure on day 2.

[4] = test system: histone H3 and H4 proteins in the forebrain neocortex; test: Western blotting of histone proteins, forebrain neocortex of IMS Balb/c mice; format: in vivo
Description: as §1, §2

SFR Balb/c mice [5] = test: Elevated Plus Maze (EPM), SFR Balb/c mice; format: in vivo; conditions: for time spent in the open arms of the EPM: SFR Balb/c treated during adolescence (P35 to P60), vs non-treated controls
SFR Balb/c mice [6] = conditions: adolescent treatment; Bhansali et al., 2007; cited from earlier work
[7] = test system: RNA Polymerase II (Pol II) at BDNF promotors; test: ChIP/real-time PCR, Pol II enrichment at BDNF promotors; format: in vivo, Balb/c mice; conditions: non-stressed Balb/c treated P35 to P59; FIG. 15C
Description: (§3) Data in (FIG. 15A) are mean±sem of 8 animals per group. Data in (FIG. 15B) and (FIG. 15C) were obtained from ChIP/real-time PCR measures (mean±sem; n=4/group) using antibodies directed against aCH4K12 (FIG. 15B) and Pol II (FIG. 15C). […] Data in (FIG. 15D) are from RT-real-time PCR measures of BDNF mRNA levels (mean±sem, n=5/group). […] All data were compared by ANOVA and significant differences between groups were resolved post hoc using Tukey Kramer multiple comparisons as indicated. In all studies, male and female mice were used.

HDAC mRNA = test: Real-time RT-PCR of HDAC mRNA, forebrain neocortex of IMS Balb/c mice
Description: (§5) Briefly, offspring of first-time mothers were separated from their dam daily for three hours (from 1:00 to 4:00 P.M.) from postnatal age day 2 (P2) until P15. Control animals were standard facility-reared (SFR) pups of first-time mothers. Housing and husbandry conditions were identical for IMS and SFR mice. Pups were weaned at P28 and group housed by sex (five animals randomly selected from at least five different litters). Since this study involved behavioral tests of emotive phenotypes that are sensitive to differences in the estrus cycle of females, all studies disclosed below were conducted on male mice.
as §4

[8] = test system: histone H3 and H4 proteins in the forebrain neocortex; test: Western blotting of histone proteins, forebrain neocortex of C57BI/6 mice; format: in vivo; conditions: C57BI/6 mice at P60, IMS-fluoxetine, OD normalized to GAPDH, mean ± sem
Description: as §1, §2

[9] = test system: aCH4K12 at BDNF promotors; test: ChIP/real-time PCR, aCH4K12 enrichment at BDNF promotors; format: in vivo, Balb/c mice; conditions: non-stressed Balb/c treated P35 to P59; FIG. 15B
Description: as §3

HDAC3 [10] = molecular target: T1, HDAC3 (Homo sapiens, UniProt O15379); conditions: read-out: IC50 HDAC 3; cited from earlier work
Target sequence in this assay (O15379 whole entry, species assumed): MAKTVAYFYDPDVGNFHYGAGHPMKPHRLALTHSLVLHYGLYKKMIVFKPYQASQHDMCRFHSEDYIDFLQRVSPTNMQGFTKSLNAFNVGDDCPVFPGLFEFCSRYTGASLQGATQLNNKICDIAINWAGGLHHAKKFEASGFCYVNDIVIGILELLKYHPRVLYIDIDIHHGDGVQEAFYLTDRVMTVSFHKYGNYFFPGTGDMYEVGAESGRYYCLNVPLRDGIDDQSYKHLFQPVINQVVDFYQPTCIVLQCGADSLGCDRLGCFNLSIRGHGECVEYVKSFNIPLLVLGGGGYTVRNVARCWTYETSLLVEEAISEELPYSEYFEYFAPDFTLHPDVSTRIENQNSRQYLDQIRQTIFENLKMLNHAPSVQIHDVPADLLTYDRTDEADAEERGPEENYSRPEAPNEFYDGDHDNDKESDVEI
Target sequence in this assay (Q9Y618 395-489 partner limits assumed, species assumed): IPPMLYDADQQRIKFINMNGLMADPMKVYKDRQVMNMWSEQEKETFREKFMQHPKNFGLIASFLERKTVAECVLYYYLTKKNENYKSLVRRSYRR

IMS Balb/c mice [11] = test: Forced Swim Test (FST), IMS Balb/c mice
Description: as §5, §4
Their times spent in open arms and the number of arm crossings was recorded. […]

IMS Balb/c mice [12] = test: Elevated Plus Maze (EPM), IMS Balb/c mice
Description: as §5, §4
Their times spent in open arms and the number of arm crossings was recorded. Three days later, mice were tested in a modified version of Forced Swim Test (FST), i.e., a 6 minute exposure on day 1 followed by another 6 minute exposure on day 2.

HDAC1 = HDAC1 (Homo sapiens, UniProt Q13547); conditions: at concentration below 10^−4M; Ito et al., 2002; cited from earlier work
Chain of HDAC1 (Q13547 whole entry, species assumed): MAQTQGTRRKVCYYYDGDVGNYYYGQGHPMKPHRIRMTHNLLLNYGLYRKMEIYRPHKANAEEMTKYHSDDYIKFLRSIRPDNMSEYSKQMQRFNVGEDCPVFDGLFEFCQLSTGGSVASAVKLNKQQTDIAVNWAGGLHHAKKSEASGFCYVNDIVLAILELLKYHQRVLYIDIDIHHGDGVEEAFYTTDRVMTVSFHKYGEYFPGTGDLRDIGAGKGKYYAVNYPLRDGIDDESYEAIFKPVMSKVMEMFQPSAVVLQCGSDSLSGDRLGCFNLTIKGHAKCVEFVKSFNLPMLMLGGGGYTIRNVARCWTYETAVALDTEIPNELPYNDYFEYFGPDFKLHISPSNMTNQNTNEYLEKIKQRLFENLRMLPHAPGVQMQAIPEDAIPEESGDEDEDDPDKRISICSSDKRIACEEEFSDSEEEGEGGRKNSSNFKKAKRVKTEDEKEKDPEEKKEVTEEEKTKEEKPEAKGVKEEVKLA

phosphodiesterases = conditions: at concentration below 10^−4M; Ito et al., 2002; cited from earlier work
adenosine receptors = conditions: at concentration below 10^−4M; Ito et al., 2002; cited from earlier work
HDAC3 [13] = molecular target: T1, HDAC3; conditions: at concentration below 10^−4M; Ito et al., 2002; cited from earlier work
Target sequence in this assay (O15379 whole entry, species assumed): as the sequence (O15379 whole entry, species assumed) above

[14] = Plasma concentration of theophylline under drinking water treatment; conditions: over 24 hours of theophylline-supplemented (10^−4M) drinking water consumption
Description: as §4

[15] = test system: extracellular 5-HT levels; conditions: McEwen et al., 2010, Mennini et al., 1987; cited from earlier work
[16] = SFR Balb/c, adolescent treatment
[17] = IMS Balb/c treated between P21 and P35
[18] = IMS Balb/c, adolescent fluoxetine vs non-treated IMS
[19] = IMS Balb/c, adolescent treatment, compared to non-treated IMS Balb/c mice
[20] = IMS Balb/c, fluoxetine during adolescence, OD normalized to GAPDH, mean ± sem
[21] = IMS Balb/c, treatment P35 to P60, vs non-treated IMS
[22] = IMS-fluoxetine Balb/c at P60, mean±sem
[23] = SFR Balb/c, fluoxetine alone or with SAHA, OD normalized to GAPDH, mean ± sem

SMILES: N[C@@H](Cc1ccc(Cl)cc1)C(=O)O (racemic) [pCPA, para-chlorophenylalanine]
- reduction of 5-HT/5-HIAA levels in the forebrain neocortex [1]: about 80%

SMILES: Nc1ccccc1NC(=O)c1ccc(CNC(=O)OCc2cccnc2)cc1 [MS-275]
- effect on acetylated H4K5 expression [2, 16]: increased
- effect on acetylated H4K8 expression [2, 16]: increased
- effect on acetylated H4K12 expression [2, 16]: increased

SMILES: O=C(CCCCCCC(=O)Nc1ccccc1)NO [SAHA, suberoylanilide hydroxamic acid]
- immobility in the FST (SFR Balb/c mice [3]): significantly increased
- effect on development of the adult epigenetic phenotype [4, 17]: did not prevent
- effect on the decreased acetylation of histone H4 proteins [4, 17]: prevented
- percentage of open arm entries in the EPM (SFR Balb/c mice [5]; SFR Balb/c treated during adolescence): lowest percentage
- time spent in the open arms of the EPM (SFR Balb/c mice [5]): significantly less time

SMILES: CNCCC(Oc1ccc(C(F)(F)F)cc1)c1ccccc1 (centres unmarked) [fluoxetine]
- FST behavior of SFR controls (SFR Balb/c mice [6]): had no effect
- immobility in the FST (SFR Balb/c mice [3]): did not differ
- immobility in the forced swim test (FST), antidepressant-like effects (SFR Balb/c mice [3]; non-stressed Balb/c treated P35 to P59, vs vehicle and fluoxetine-only, FIG. 15A): not achieved
- increase in acetylated H3K9 protein [4, 18]: 55%
- increase in acetylated H4K12 protein [4, 18]: 230%
- increase in total histone H3 protein expression [4, 18]: 60%
- increase in total histone H4 protein expression [4, 18]: 13%
- H3K4me3 [4, 19]: Increased
- acH3K9 [4, 19]: Increased
- acH4K5 [4, 19]: Increased
- acH4K12 [4, 19]: Increased
- acK4K8 [4, 19]: Increased
- H3K4me3 expression [4, 20]: 0.94 ± 0.07
- H3K9me2 expression [4, 20]: 0.93 ± 0.03
- H3 expression [4, 20]: 1.31 ± 0.03
- acH3K9 expression [4, 20]: 1.21 ± 0.02
- acH4K5 expression [4, 20]: 0.94 ± 0.02
- acH4K8 expression [4, 20]: 1.51 ± 0.06
- acH4K12 expression [4, 20]: 1.16 ± 0.04
- acH4K16 expression [4, 20]: 1.04 ± 0.04
- H4 expression ([4]; IMS Balb/c, fluoxetine during adolescence, OD on Western blots normalized to GAPDH, mean ± sem, n = 5): 0.97 ± 0.05
- effect on acetylated H4K12 protein expression [4, 21]: significantly increased
- effect on acetylated histone H3K9 expression [4, 21]: significantly increased
- effect on acetylated histone H4K8 expression [4, 21]: significantly increased
- effect on dimethylated histone H3 protein expression [4, 21]: did not change
- effect on total H3 protein expression [4, 21]: increased
- effect on total H4 protein expression [4, 21]: increased
- effect on trimethylated histone H3 protein expression [4, 21]: increased
- increase of density of Pol II associated with the P3 promotor of the BDNF gene [7]: not in fluoxetine-only treated mice
- time spent in the open arms of the EPM (SFR Balb/c mice [5]): did not differ
- effect on HDAC mRNA expression levels (HDAC mRNA; IMS Balb/c, treatment P35 to P60, nine HDAC mRNAs): did not alter
- HDAC1 mRNA expression, real-time PCR ½^ΔCt (HDAC mRNA; [22]): 0.011±0.0006
- HDAC2 mRNA expression, real-time PCR ½^ΔCt (HDAC mRNA; [22]): 0.0016±0.0001
- HDAC3 mRNA expression, real-time PCR ½^ΔCt (HDAC mRNA; [22]): 0.055±0.004
- HDAC4 mRNA expression, real-time PCR ½^ΔCt (HDAC mRNA; [22]): 0.011±0.002
- HDAC5 mRNA expression, real-time PCR ½^ΔCt (HDAC mRNA; [22]): 0.044±0.006
- HDAC7 mRNA expression, real-time PCR ½^ΔCt (HDAC mRNA; [22]): 0.011±0.001
- HDAC8 mRNA expression, real-time PCR ½^ΔCt (HDAC mRNA; [22]): 0.0035±0.0004
- HDAC9 mRNA expression, real-time PCR ½^ΔCt (HDAC mRNA; [22]): 0.001±0.0002
- HDAC10 mRNA expression, real-time PCR ½^ΔCt (HDAC mRNA; [22]): 0.0074±0.0006
- H3K4me3 expression [8]: 0.94 ± 0.02
- H3K9me2 expression [8]: 0.89 ± 0.03
- H3 expression [8]: 0.98 ± 0.02
- acH3K9 expression [8]: 1.00 ± 0.03
- H4 expression ([8]; n = 5): 1.00 ± 0.03
- enrichment of aCH4K12 at BDNF promotor P1 [9]: higher enrichment
- enrichment of aCH4K12 at BDNF promotor P3 [9]: higher enrichment
- H3K4me3 expression [2, 23]: 1.12 ± 0.02
- H3K9me2 expression [2, 23]: 1.08 ± 0.04
- H3 expression [2, 23]: 0.96 ± 0.01
- acH3K9 expression [2, 23]: 0.86 ± 0.03
- acH4K5 expression [2, 23]: 0.45 ± 0.06
- acH4K8 expression [2, 23]: 0.86 ± 0.06
- acH4K12 expression [2, 23]: 0.80 ± 0.03
- acH4K16 expression [2, 23]: 0.70 ± 0.06
- H4 expression ([2]; SFR Balb/c, fluoxetine alone or with SAHA, OD on Western blots normalized to GAPDH, mean ± sem, n = 5): 1.10 ± 0.04
- effect on histone H3/H4 expression ([2]; SFR mice, adolescent fluoxetine 16 mg/kg/day vs vehicle, FIG. 7): does not alter

SMILES: CCCC(=O)[O-].[Na+] [sodium butyrate]
- IC50 (HDAC3 [10]): 700 µM

SMILES: Cn1c(=O)c2[nH]cnc2n(C)c1=O [theophylline]
- total immobility time in the FST (IMS Balb/c mice [11]; IMS Balb/c treated P35 to P60, greater immobility of IMS mice): significantly potentiated
- number of passive episodes in the FST (IMS Balb/c mice [11]; SFR controls, IMS and treated IMS mice): no significant differences
- total time spent in open arms of the EPM (IMS Balb/c mice [12]; IMS Balb/c treated P35 to P60, vs non-treated IMS mice): significantly less time
- total number of arm crossings in the EPM (IMS Balb/c mice [12]; SFR controls, IMS and treated IMS Balb/c): no significant difference
- percentages of crossings into open arms (IMS Balb/c mice [12]; treated IMS Balb/c compared with SFR controls): did not reach statistical significance
- activation of HDAC1 (HDAC1): activates
- inhibition of phosphodiesterases (phosphodiesterases): exerts no
- antagonist effect on adenosine receptors (adenosine receptors): no antagonist effect
- immobility in the FST (SFR Balb/c mice [3]): did not differ
- activation of HDAC3 (HDAC3 [13]): activates
- plasma concentrations of theophylline [14]: below 10^−4 M
- time spent in the open arms of the EPM (SFR Balb/c mice [5]): did not differ

SMILES: CN1c2ccccc2C(NCCCCCCC(=O)O)c2ccc(Cl)cc2S1(=O)=O (centres unmarked) [tianeptine]
- extracellular 5-HT levels [15]: without marked changes
